# Activity calls are given as the source filed them.
# Legend:
# [1] = tested on: INS1; assay: beta cell apoptosis inhibitors, cytokine rescue, dose response, luminescence, retest (AID 449756); assay type: functional, cell-based; conditions: Rattus norvegicus;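 further: cell death triggered by IL-1 beta plus TNF-alpha plus IFN-gamma mixture; protective hits raise ATP signal compared with cytokine alone wells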
# [2] = tested on: BJ; assay: cytotoxicity toward BJ-TERT fibroblasts, dose response, cell-based, RAS-independent, luminescence (AID 1933); assay type: functional; conditions: Homo sapiens
# [3] = cells; assay type: functional, cell-based
# [4] = tested on: BJ; assay: cytotoxicity toward BJ-TERT-LT-ST fibroblasts, dose response, cell-based, RAS-independent, luminescence (AID 1935); assay type: functional; conditions: Homo sapiens;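 further: BJ fibroblasts immortalized with TERT plus LT and ST oncogenes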
# [5] = tested on: BJ; assay: cells; assay type: functional, cell-based; conditions: Homo sapiens
# [6] = tested on: BJ; assay: cytotoxicity toward Ras-transformed BJeLR fibroblasts, dose response, cell-based, alamar blue fluorescence, cherrypicked samples (AID 2631); assay type: functional; conditions: Homo sapiens;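 further: confirmatory dose-response assay in RAS-dependent BJ fibroblasts engineered with TERT, LT and ST, with cytotoxicity read by fluorescence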
# [7] = molecular target: T1, Exodeoxyribonuclease V (Escherichia coli (strain K12), UniProt P04993+P07648+P08394); assay: E. coli RecBCD inhibitors, dose response, counter-screen for AddAB inhibitor project, absorbance, V66 E. coli, mutant T4 phage (AID 492957); assay type: functional, cell-based, Escherichia coli str. K-12 substr. MG1655
# T1 sequence (P04993 whole entry): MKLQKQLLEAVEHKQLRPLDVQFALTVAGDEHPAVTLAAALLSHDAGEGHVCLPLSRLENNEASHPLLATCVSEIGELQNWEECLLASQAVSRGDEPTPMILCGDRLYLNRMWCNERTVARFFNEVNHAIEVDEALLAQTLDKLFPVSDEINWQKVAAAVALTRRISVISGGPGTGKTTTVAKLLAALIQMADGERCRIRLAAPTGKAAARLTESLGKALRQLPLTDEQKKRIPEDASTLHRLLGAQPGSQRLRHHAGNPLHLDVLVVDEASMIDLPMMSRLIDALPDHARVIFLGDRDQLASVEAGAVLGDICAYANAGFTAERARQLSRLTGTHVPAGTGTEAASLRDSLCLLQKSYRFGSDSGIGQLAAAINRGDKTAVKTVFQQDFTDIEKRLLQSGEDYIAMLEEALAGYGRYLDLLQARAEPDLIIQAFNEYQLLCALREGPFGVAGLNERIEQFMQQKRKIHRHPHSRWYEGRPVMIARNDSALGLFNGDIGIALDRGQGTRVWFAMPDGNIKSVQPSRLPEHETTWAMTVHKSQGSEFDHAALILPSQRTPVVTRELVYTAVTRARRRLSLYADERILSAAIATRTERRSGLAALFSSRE
# T1 sequence (P07648 whole entry): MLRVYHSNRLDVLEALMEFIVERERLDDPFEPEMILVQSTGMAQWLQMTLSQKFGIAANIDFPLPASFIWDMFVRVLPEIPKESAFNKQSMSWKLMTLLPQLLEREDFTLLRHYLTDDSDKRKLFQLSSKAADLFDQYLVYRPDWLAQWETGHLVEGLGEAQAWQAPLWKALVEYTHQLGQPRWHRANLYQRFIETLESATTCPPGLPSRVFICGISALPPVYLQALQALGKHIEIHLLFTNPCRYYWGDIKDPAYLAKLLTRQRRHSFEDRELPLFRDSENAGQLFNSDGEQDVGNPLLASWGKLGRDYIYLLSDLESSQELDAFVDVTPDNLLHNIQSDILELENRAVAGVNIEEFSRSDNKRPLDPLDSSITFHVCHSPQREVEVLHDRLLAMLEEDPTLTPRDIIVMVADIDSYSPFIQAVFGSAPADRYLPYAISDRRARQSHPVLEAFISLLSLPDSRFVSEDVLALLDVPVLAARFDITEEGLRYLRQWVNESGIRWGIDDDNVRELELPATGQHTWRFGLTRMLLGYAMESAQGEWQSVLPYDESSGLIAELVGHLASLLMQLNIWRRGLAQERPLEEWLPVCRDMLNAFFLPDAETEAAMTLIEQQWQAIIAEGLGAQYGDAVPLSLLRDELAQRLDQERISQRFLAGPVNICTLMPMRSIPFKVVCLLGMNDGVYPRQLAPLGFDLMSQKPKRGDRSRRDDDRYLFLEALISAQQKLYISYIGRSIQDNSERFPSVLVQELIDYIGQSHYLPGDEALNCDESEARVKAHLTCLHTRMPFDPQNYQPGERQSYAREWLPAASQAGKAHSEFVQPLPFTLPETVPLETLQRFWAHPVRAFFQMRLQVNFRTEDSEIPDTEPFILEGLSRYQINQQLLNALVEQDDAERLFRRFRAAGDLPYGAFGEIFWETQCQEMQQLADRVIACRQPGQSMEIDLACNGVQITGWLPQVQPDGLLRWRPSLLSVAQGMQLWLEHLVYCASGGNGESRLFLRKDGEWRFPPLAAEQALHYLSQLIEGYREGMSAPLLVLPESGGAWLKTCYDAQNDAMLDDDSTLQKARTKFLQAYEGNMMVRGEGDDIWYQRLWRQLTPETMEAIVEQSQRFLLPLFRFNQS
# T1 sequence (P08394 whole entry): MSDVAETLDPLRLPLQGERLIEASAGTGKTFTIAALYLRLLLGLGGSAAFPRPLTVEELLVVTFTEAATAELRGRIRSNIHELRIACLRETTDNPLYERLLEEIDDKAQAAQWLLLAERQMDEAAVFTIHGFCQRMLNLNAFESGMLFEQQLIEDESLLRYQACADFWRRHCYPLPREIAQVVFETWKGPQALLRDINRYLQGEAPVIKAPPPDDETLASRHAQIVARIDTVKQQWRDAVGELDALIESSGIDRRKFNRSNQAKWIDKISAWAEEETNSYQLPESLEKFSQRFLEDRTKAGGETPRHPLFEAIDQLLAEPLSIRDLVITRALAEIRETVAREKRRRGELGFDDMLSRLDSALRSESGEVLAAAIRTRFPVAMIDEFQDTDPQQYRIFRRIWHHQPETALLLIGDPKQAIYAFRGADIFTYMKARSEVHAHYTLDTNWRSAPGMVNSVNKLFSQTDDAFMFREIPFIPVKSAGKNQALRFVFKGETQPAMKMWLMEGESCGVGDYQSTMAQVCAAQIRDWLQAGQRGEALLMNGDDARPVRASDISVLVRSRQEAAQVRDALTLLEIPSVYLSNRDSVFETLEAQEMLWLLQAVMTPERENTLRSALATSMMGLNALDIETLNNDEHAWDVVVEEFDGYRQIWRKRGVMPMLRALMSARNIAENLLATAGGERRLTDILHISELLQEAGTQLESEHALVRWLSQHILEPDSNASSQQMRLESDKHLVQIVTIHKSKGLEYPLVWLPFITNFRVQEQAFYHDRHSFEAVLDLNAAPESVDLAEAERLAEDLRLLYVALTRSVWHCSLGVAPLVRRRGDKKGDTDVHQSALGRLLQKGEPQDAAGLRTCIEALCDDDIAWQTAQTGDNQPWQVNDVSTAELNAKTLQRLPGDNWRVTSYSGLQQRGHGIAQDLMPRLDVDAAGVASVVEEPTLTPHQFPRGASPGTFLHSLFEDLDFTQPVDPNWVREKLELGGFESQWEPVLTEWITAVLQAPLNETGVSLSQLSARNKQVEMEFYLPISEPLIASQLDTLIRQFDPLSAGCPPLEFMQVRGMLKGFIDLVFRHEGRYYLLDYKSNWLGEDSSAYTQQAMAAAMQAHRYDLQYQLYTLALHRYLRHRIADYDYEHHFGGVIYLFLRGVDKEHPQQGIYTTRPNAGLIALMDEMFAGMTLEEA
# [8] = cytotoxicity toward DRD oncogenic fibroblasts, dose response, cell-based, non-viral oncogenic, luminescence (AID 1934); assay type: functional; conditions: Homo sapiens
# [9] = cells; assay type: functional, cell-based; remark: listed apart in the source
# [10] = Counterscreen for AddAB inhibitors: absorbance-based bacterial cell-based high throughput dose response assay for inhibitors of bacterial viability. [Related pubchem assays (depositor defined):AID435030, AID449728, AID449731, AID488942, AID488955, AID488956]; assay type: functional
# [11] = tested on: Vero; assay: cells; assay type: functional; conditions: Chlorocebus sabaeus
# [12] = tested on: Vero; assay: cells; assay type: functional, cell-based; conditions: Chlorocebus sabaeus
# [13] = molecular target: T2, Carboxy-terminal domain RNA polymerase II polypeptide A small phosphatase 1 (Homo sapiens, UniProt Q9GZU7); assay: inhibitors of CTDSP1, concentration-response testing, biochemical assay, absorbance-based, actives from ultra-high-throughput screening (AID 540297); assay type: functional
# T2 sequence (Q9GZU7 whole entry): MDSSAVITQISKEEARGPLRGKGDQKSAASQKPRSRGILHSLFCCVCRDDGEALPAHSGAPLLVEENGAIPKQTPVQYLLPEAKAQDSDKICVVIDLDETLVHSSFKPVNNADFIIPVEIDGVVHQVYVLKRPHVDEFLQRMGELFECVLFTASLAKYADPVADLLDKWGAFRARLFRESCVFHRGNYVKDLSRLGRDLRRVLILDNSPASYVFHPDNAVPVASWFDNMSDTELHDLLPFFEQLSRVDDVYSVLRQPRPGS
# [14] = molecular target: DNA dC->dU-editing enzyme APOBEC-3A (Homo sapiens, UniProt P31941); assay: Dose Response confirmation of small molecule APOBEC3A DNA Deaminase Inhibitors via a fluorescence-based single-stranded DNA deaminase assay. [Related pubchem assays (depositor defined):AID493011, AID493024]; assay type: functional
# Sequence of DNA dC->dU-editing enzyme APOBEC-3A (P31941 whole entry): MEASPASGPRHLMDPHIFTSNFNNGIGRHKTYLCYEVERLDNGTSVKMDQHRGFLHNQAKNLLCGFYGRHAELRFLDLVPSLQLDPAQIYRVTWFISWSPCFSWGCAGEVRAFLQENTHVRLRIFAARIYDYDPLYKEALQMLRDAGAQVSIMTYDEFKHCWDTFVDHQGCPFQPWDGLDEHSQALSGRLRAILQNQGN
# [15] = molecular target: DNA dC->dU-editing enzyme APOBEC-3G (Homo sapiens, UniProt Q9HC16); assay type: functional;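 further: Dose-response counterscreen measuring inhibition of APOBEC3G DNA deaminase activity, run while confirming APOBEC3A inhibitors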
# Sequence of DNA dC->dU-editing enzyme APOBEC-3G (Q9HC16 whole entry): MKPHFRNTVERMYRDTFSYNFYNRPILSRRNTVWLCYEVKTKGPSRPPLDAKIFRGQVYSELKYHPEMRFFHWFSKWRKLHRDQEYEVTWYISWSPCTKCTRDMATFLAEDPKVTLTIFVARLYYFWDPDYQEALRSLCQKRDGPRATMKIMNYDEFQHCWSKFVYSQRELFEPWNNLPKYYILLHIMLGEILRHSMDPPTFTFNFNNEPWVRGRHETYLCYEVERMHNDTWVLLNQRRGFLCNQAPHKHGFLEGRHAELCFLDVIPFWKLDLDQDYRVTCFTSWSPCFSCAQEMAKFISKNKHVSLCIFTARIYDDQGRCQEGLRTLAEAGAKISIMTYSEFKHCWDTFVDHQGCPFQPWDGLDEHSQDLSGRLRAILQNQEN
# [16] = molecular target: T3, Protein skinhead-1 (Caenorhabditis elegans, UniProt P34707); assay type: functional
# T3 sequence (P34707 whole entry): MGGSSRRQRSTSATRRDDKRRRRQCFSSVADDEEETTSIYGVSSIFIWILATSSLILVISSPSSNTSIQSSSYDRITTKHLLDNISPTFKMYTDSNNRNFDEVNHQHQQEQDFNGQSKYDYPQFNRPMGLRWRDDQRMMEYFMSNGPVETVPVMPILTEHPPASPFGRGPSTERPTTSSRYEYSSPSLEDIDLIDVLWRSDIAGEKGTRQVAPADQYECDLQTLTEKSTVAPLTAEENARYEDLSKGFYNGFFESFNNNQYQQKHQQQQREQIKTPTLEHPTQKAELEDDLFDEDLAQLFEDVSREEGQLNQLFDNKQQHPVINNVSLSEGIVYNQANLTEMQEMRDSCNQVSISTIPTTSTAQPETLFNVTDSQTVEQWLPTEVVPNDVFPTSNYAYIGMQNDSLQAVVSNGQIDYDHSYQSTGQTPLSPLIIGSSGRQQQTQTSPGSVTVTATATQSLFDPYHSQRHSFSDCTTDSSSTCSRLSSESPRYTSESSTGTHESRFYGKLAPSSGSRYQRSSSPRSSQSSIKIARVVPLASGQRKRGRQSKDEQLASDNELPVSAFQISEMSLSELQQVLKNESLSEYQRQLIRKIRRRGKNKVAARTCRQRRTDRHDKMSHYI
SMILES,IC50 [7],IC50 [10],CC50 [11],IC50 [12],IC50 [13],further results
C/C(=N\Nc1ccc2nncn2n1)c1ccccn1,57.1 µM (inactive),114 µM (inactive),,,,AC50 [1]: 0.898 µM (active); EC50 [2]: 16 µM (active); EC50 [3]: > 350 µM (not active); EC50 [4]: 8.41 µM (inconclusive); EC50 [5]: 4.29 µM (active); EC50 [6]: 0.912 µM (active); EC50 [8]: 4.95 µM (active); EC50 [9]: 6.99 µM (active)
CN1CCN(CCCN2c3ccccc3Sc3ccc(S(=O)(=O)N(C)C)cc32)CC1,,,> 25 µM (active),> 25 µM (active),,
O=C(Cn1cnc2ccccc21)Nc1ccc2c(c1)OCCCO2,> 119 µM (inactive),> 119 µM (inactive),,,,
C/C(=N\NC1=NC(=O)C(CC(=O)O)S1)c1ccccn1 (stereo not drawn),73.3 µM (inactive),> 118 µM (inactive),,,,
Cc1c(C(=O)O)cccc1-c1ccc(/C=N/n2cnnc2)o1,,,,,6.52 µM (active),
Cn1cc(CN2CCCC(C(=O)Nc3ccc(-c4cccc(F)c4)cc3)C2)cn1 (stereo not drawn),,,22.3 µM (active),22.6 µM (active),,
Cc1ccn2c(=O)nc(SCC(=O)NCc3ccccc3Cl)nc2c1,,,,,8.34 µM (active),
CC(c1ccccc1)C1OCC(C[N+]2(C)CCCCC2)O1 (stereo not drawn),,,,,2.75 µM (active),IC50 [14]: 2.81 µM (active); IC50 [15]: 2.72 µM (active)
CN(C)CCCN(C(=O)c1ccc2c(c1)OCCO2)c1nc2ccc(Cl)cc2s1,,,> 25 µM (active),> 25 µM (active),,
COc1ccc(C(=O)/C=C/c2ccc(OC)c(CN3CCOCC3)c2)cc1,,,22.6 µM (active),9.3 µM (active),,IC50 [16]: 6.86 µM (active)
